# Results taken from patent publication US12460243B2, “Mass spectrometry determination of the sensitivity or resistance of bacteria to an antibiotic” (priority 2019, dated 2025).
# Bridge positions count the residues as written; N and C are the ends. Square brackets hold non-standard residues; d marks the D form. Peptide text beside a SMILES is read from it. * marks the point of attachment. Heptanoyl(6-Me) = CC(C)CCCCC(=O)*; Dab = NCC[C@H](N)C(=O)O
# Columns and labels:
# Type in all cases: cell-based
# Acinetobacter baumannii [1] = test: MALDI-TOF detection of released characteristic proteins, 10 min at 50° C., filtration (example V); conditions: colistin 20 μg/ml, 10 min 50° C.
# Description: (§1) The tests were carried out using the following steps: • preparing a suspension of microorganism at 2 McF in water (suspension medium, bioMérieux reference 70700), • preparing a solution of colistin sulfate (Sigma reference C4461) at a concentration of 2× in pure water (taking into account the colistin titer indicated by the manufacturer).
# (§2) The strains of A. baumannii (AB_S044, AB_S045, AB_S046, AB_R-E105) and of Pseudomonas aeruginosa (PA_S062, PA_SE64, PA_RE66, PA_RE68) are analyzed with the protocol described in example V. Thus, they are incubated in the presence of 20 μg/ml of colistin.
# Pseudomonas aeruginosa [2] = test: as above; conditions: colistin 20 μg/ml, 10 min 50° C.
# Description: as §1, §2
# Klebsiella pneumoniae = test: microdilution in broth (reference method)
# Description: (§3) So as to be able to evaluate the efficacy of the method according to the invention, the different strains were analyzed beforehand by microdilution in broth in order to determine their status (sensitive or resistant). This method is regarded as the reference method by the CLSI and EUCAST.
# Escherichia coli [3] = test: microdilution in broth (reference method)
# Description: as §3
# Escherichia coli [4] = test: MALDI-TOF detection of characteristic proteins released after incubation with colistin (examples II-IV, centrifugation); conditions: colistin 2.5 mg/ml
# Description: This test was carried out using the following steps: • preparing a suspension of strains EC_S and EC_R of E. coli at 1 McFarland (McF) in water (suspension medium, bioMérieux reference 70700), • preparing a solution of colistin sulfate (Sigma, reference C4461) at a concentration of 5 mg/ml in pure water (taking into account the colistin titer indicated by the manufacturer), • mixing 250 μl of each suspension with 250 μl of colistin to obtain a solution of microorganism at 0.5 McF and at a concentration of 2.5 mg/ml of colistin, • homogenizing using a vortex for 5 seconds, • incubating the mixture for 4 hours at 37° C., • homogenizing using a vortex for 5 seconds, • centrifuging at 4700 rev/min (1500 g) for 5 minutes, • depositing 1 μl of the supernatant on a disposable target (bioMérieux reference 410893), • depositing 1 μl of HCCA matrix (bioMérieux, reference 411071) on the drop of supernatant, • analyzing the sample by MALDI-TOF spectrometry on VITEK-MS Plus (bioMérieux) with a method suitable for microbiology, i.e. with a positive ionization mode and a mass range from 2000 to 20 000 Th. • accumulating 100 profiles from 10 firings and comparing the data with the data contained in the databases for E. coli, • observing the presence or absence of protein peaks characteristic of E. coli. • determining the sensitivity to colistin if proteins characteristic of E. coli are detected or the resistance if no protein of E. coli is detected.
# The E. coli strains S and R16 are analyzed with the same protocol as in example II apart from the incubation time of 30 minutes at 37° C. The S strain is sensitive to colistin and the R16 strain is resistant to colistin.
# The same E. coli strains R16 and S are analyzed with the same protocol as in example III apart from incubation at 50° C.
# Acinetobacter baumannii [5] = test: microdilution in broth (reference method); conditions: by microdilution in broth
# Description: as §3
# (§4) As before, the different strains were analyzed beforehand by microdilution in broth in order to determine their status (sensitive or resistant).
# Pseudomonas aeruginosa [6] = test: microdilution in broth (reference method); conditions: by microdilution in broth
# Description: as §3, §4
compound,measurement,setting,value
CC(C)CCCCC(=O)N[C@@H](CCN)C(=O)N[C@H](C(=O)N[C@@H](CCN)C(=O)N[C@H]1CCNC(=O)[C@H]([C@@H](C)O)NC(=O)[C@H](CCN)NC(=O)[C@H](CCN)NC(=O)[C@H](CC(C)C)NC(=O)[C@@H](CC(C)C)NC(=O)[C@H](CCN)NC1=O)[C@@H](C)O [colistin] ({Heptanoyl(6-Me)}-[Dab]T[Dab][Dab][Dab][dL]L[Dab][Dab]T; lactam 4-C),sensitivity or resistance to colistin by MALDI-TOF,Acinetobacter baumannii [1]; strain AB_R-E105,resistant
same,sensitivity or resistance to colistin by MALDI-TOF,Acinetobacter baumannii [1]; strain AB_S044,sensitive
same,sensitivity or resistance to colistin by MALDI-TOF,Acinetobacter baumannii [1]; strain AB_S045,sensitive
same,sensitivity or resistance to colistin by MALDI-TOF,Acinetobacter baumannii [1]; strain AB_S046,sensitive
same,sensitivity or resistance to colistin by MALDI-TOF,Pseudomonas aeruginosa [2]; strain PA_RE66,resistant
same,sensitivity or resistance to colistin by MALDI-TOF,Pseudomonas aeruginosa [2]; strain PA_RE68,resistant
same,sensitivity or resistance to colistin by MALDI-TOF,Pseudomonas aeruginosa [2]; strain PA_S062,sensitive
same,sensitivity or resistance to colistin by MALDI-TOF,Pseudomonas aeruginosa [2]; strain PA_SE64,sensitive
same,Statuts par microdilution,Klebsiella pneumoniae; strain KP_R9 (chromosomal),Résistante
same,Statuts par microdilution,Klebsiella pneumoniae; strain KP_S10,Sensible
same,Statuts par microdilution,Klebsiella pneumoniae; strain KP_S15,Sensible
same,Statuts par microdilution,Klebsiella pneumoniae; strain KR_R16 (chromosomal),Résistante
same,Statuts par microdilution,Escherichia coli [3]; strain EC_R16 (mcr-1 plasmid),Résistante
same,Statuts par microdilution,Escherichia coli [3]; strain EC_R17 (mcr-1 plasmid),Résistante
same,Statuts par microdilution,Escherichia coli [3]; strain EC_S10,Sensible
same,Statuts par microdilution,Escherichia coli [3]; strain EC_S15,Sensible
same,sensitivity or resistance to colistin by MALDI-TOF,"Escherichia coli [4]; strain EC_R, 4 h at 37° C.",resistant
same,sensitivity or resistance to colistin by MALDI-TOF,"Escherichia coli [4]; strain EC_S, 4 h at 37° C.",sensitive
same,sensitivity or resistance to colistin by MALDI-TOF,"Escherichia coli [4]; strain R16, 30 min at 37° C.",resistance
same,sensitivity or resistance to colistin by MALDI-TOF,"Escherichia coli [4]; strain R16, 30 min at 50° C.",resistance
same,sensitivity or resistance to colistin by MALDI-TOF,"Escherichia coli [4]; strain S, 30 min at 37° C.",sensitive
same,sensitivity or resistance to colistin by MALDI-TOF,"Escherichia coli [4]; strain S, 30 min at 50° C.",sensitivity
same,Sensible ou Résistante,Acinetobacter baumannii [5]; strain AB_R-E105,Résistante
same,Sensible ou Résistante,Acinetobacter baumannii [5]; strain AB_S044,Sensible
same,Sensible ou Résistante,Acinetobacter baumannii [5]; strain AB_S045,Sensible
same,Sensible ou Résistante,Acinetobacter baumannii [5]; strain AB_S046,Sensible
same,Sensible ou Résistante,Pseudomonas aeruginosa [6]; strain PA_RE66,Résistante
same,Sensible ou Résistante,Pseudomonas aeruginosa [6]; strain PA_RE68,Résistante
same,Sensible ou Résistante,Pseudomonas aeruginosa [6]; strain PA_S062,Sensible
same,Sensible ou Résistante,Pseudomonas aeruginosa [6]; strain PA_SE64,Sensible
